Values joined by “and” are separate entries in the source; they are usually repeats but may differ in a detail not shown here. Equal values may be shown once.
Assay: xn = mol fraction of the nth substance listed

C1COCCO1 + O
Settings	viscosity
293.15 K, 101.3 kPa, x2 = 0.0459	1.306 mPa·s
293.15 K, 101.3 kPa, x2 = 0.09407	1.32 mPa·s
293.15 K, 101.3 kPa, x2 = 0.2053	1.399 mPa·s and 1.4 mPa·s
293.15 K, 101.3 kPa, x2 = 0.3758	1.621 mPa·s and 1.619 mPa·s
293.15 K, 101.3 kPa, x2 = 0.5701	1.982 mPa·s and 1.981 mPa·s
293.15 K, 101.3 kPa, x2 = 0.7952	2.264 mPa·s and 2.263 mPa·s
293.15 K, 101.3 kPa, x2 = 0.8661	2.06 mPa·s
293.15 K, 101.3 kPa, x2 = 0.9391	1.577 mPa·s and 1.576 mPa·s
293.15 K, 101.3 kPa, x2 = 0.9742	1.258 mPa·s and 1.259 mPa·s
293.15 K, 101.33 kPa, x1 = 0.0222	1.221 mPa·s
293.15 K, 101.33 kPa, x1 = 0.0486	1.464 mPa·s
293.15 K, 101.33 kPa, x1 = 0.0806	1.728 mPa·s
293.15 K, 101.33 kPa, x1 = 0.12	1.984 mPa·s
293.15 K, 101.33 kPa, x1 = 0.143	2.092 mPa·s
293.15 K, 101.33 kPa, x1 = 0.17	2.183 mPa·s
293.15 K, 101.33 kPa, x1 = 0.2	2.246 mPa·s
293.15 K, 101.33 kPa, x1 = 0.235	2.268 mPa·s
293.15 K, 101.33 kPa, x1 = 0.25	2.266 mPa·s
293.15 K, 101.33 kPa, x1 = 0.275	2.252 mPa·s
293.15 K, 101.33 kPa, x1 = 0.323	2.185 mPa·s
293.15 K, 101.33 kPa, x1 = 0.334	2.151 mPa·s
293.15 K, 101.33 kPa, x1 = 0.38	2.072 mPa·s
293.15 K, 101.33 kPa, x1 = 0.45	1.927 mPa·s
293.15 K, 101.33 kPa, x1 = 0.5	1.817 mPa·s
293.15 K, 101.33 kPa, x1 = 0.537	1.758 mPa·s
293.15 K, 101.33 kPa, x1 = 0.648	1.569 mPa·s
293.15 K, 101.33 kPa, x1 = 0.716	1.478 mPa·s
293.15 K, 101.33 kPa, x1 = 0.795	1.396 mPa·s
293.15 K, 101.33 kPa, x1 = 0.846	1.349 mPa·s
293.15 K, 101.33 kPa, x1 = 0.918	1.312 mPa·s
298 K, 101 kPa, x2 = 0.5236	1.647 mPa·s
298 K, 101 kPa, x2 = 0.6752	1.886 mPa·s
298 K, 101 kPa, x2 = 0.7636	1.965 mPa·s
298 K, 101 kPa, x2 = 0.88	1.701 mPa·s
298 K, 101 kPa, x2 = 0.9514	1.271 mPa·s
298.15 K, 101 kPa, x1 = 0.141	1.784 mPa·s
298.15 K, 101 kPa, x1 = 0.271	1.923 mPa·s
298.15 K, 101.3 kPa, x2 = 0.0459	1.196 mPa·s
298.15 K, 101.3 kPa, x2 = 0.09407	1.207 mPa·s
298.15 K, 101.3 kPa, x2 = 0.2053	1.275 mPa·s and 1.274 mPa·s
298.15 K, 101.3 kPa, x2 = 0.3758	1.458 mPa·s
298.15 K, 101.3 kPa, x2 = 0.5701	1.761 mPa·s
298.15 K, 101.3 kPa, x2 = 0.7952	1.976 mPa·s and 1.975 mPa·s
298.15 K, 101.3 kPa, x2 = 0.8661	1.796 mPa·s
298.15 K, 101.3 kPa, x2 = 0.9391	1.38 mPa·s and 1.381 mPa·s
298.15 K, 101.3 kPa, x2 = 0.9742	1.109 mPa·s and 1.108 mPa·s
298.15 K, 101.33 kPa, x1 = 0.0222	1.076 mPa·s
298.15 K, 101.33 kPa, x1 = 0.0486	1.283 mPa·s
298.15 K, 101.33 kPa, x1 = 0.0806	1.508 mPa·s
298.15 K, 101.33 kPa, x1 = 0.12	1.728 mPa·s
298.15 K, 101.33 kPa, x1 = 0.143	1.822 mPa·s
298.15 K, 101.33 kPa, x1 = 0.17	1.901 mPa·s
298.15 K, 101.33 kPa, x1 = 0.2	1.957 mPa·s
298.15 K, 101.33 kPa, x1 = 0.235	1.98 mPa·s
298.15 K, 101.33 kPa, x1 = 0.25	1.983 mPa·s
298.15 K, 101.33 kPa, x1 = 0.275	1.96 mPa·s
298.15 K, 101.33 kPa, x1 = 0.323	1.917 mPa·s
298.15 K, 101.33 kPa, x1 = 0.334	1.894 mPa·s
298.15 K, 101.33 kPa, x1 = 0.38	1.831 mPa·s
298.15 K, 101.33 kPa, x1 = 0.45	1.715 mPa·s
298.15 K, 101.33 kPa, x1 = 0.5	1.623 mPa·s
298.15 K, 101.33 kPa, x1 = 0.537	1.572 mPa·s
298.15 K, 101.33 kPa, x1 = 0.648	1.414 mPa·s
298.15 K, 101.33 kPa, x1 = 0.716	1.336 mPa·s
298.15 K, 101.33 kPa, x1 = 0.795	1.274 mPa·s
298.15 K, 101.33 kPa, x1 = 0.846	1.23 mPa·s
298.15 K, 101.33 kPa, x1 = 0.918	1.2 mPa·s
298.15 K, 101.33 kPa, x2 = 0.1129	1.222 mPa·s
298.15 K, 101.33 kPa, x2 = 0.21	1.291 mPa·s
298.15 K, 101.33 kPa, x2 = 0.3108	1.384 mPa·s
298.15 K, 101.33 kPa, x2 = 0.4096	1.51 mPa·s
298.15 K, 101.33 kPa, x2 = 0.4986	1.629 mPa·s
298.15 K, 101.33 kPa, x2 = 0.6059	1.797 mPa·s
298.15 K, 101.33 kPa, x2 = 0.6983	1.913 mPa·s
298.15 K, 101.33 kPa, x2 = 0.8288	1.857 mPa·s
298.15 K, 101.33 kPa, x2 = 0.9021	1.57 mPa·s
303.1 K, 101 kPa, x2 = 0.228	1.147 mPa·s
303.1 K, 101 kPa, x2 = 0.2741	1.174 mPa·s
303.1 K, 101 kPa, x2 = 0.4187	1.261 mPa·s
303.1 K, 101 kPa, x2 = 0.7038	1.709 mPa·s
303.1 K, 101 kPa, x2 = 0.8099	1.733 mPa·s
303.1 K, 101 kPa, x2 = 0.8346	1.661 mPa·s
303.1 K, 101 kPa, x2 = 0.8791	1.543 mPa·s
303.1 K, 101 kPa, x2 = 0.9194	1.35 mPa·s
303.1 K, 101 kPa, x2 = 0.9508	1.162 mPa·s
303.1 K, 101 kPa, x2 = 0.9786	0.968 mPa·s
303.15 K, 101.3 kPa, x2 = 0.0459	1.098 mPa·s
303.15 K, 101.3 kPa, x2 = 0.09407	1.108 mPa·s and 1.107 mPa·s
